In patent publication US10519191B2, “Bile acid analogs as FXR/TGR5 agonists and methods of use thereof” (Enanta Pharmaceuticals, Inc., priority 2014, dated 2019):
Read-outs that look alike come from different tables or passages of the source.

Molecular target: T1, human FXR (NR1H4) (Homo sapiens, UniProt Q96RI1)
T1 construct: host or cells: CHO (Chinese hamster ovary) reporter cells
T1 sequence (Q96RI1 1-486): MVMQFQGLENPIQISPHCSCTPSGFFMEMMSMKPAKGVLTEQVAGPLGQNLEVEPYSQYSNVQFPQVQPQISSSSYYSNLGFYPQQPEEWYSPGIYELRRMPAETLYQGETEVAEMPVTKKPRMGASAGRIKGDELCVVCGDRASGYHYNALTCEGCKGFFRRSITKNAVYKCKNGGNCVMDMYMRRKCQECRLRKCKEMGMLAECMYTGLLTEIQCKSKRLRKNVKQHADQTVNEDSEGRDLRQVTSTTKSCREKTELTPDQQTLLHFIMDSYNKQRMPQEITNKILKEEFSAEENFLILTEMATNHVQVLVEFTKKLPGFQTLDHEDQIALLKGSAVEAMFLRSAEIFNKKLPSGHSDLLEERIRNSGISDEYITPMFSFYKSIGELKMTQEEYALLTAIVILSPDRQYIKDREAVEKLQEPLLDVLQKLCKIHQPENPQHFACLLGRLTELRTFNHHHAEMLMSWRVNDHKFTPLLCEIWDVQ
Assay: Human FXR (NR1H4) Assay (Gal4 promoter driven luciferase reporter, CHO cells)
Type: cell-based
Excerpt: Assays Human FXR (NR1H4) Assay
Determination of a ligand mediated Gal4 promoter driven transactivation to quantify ligand binding mediated activation of FXR. FXR Reporter Assay kit purchased from Indigo Bioscience (Catalogue number: IB00601) to determine the potency and efficacy of compound developed by Enanta that can induce FXR activation. The principle application of this reporter assay system is to quantify functional activity of human FXR. The assay utilizes non-human mammalian cells, CHO (Chinese hamster ovary) cells engineered to express human NR1H4 protein (referred to as FXR). Reporter cells also incorporate the cDNA encoding beetle luciferase which catalyzes the substrates and yields photon emission. Luminescence intensity of the reaction is quantified using a plate-reading luminometer, Envision. Reporter Cells include the luciferase reporter gene functionally linked to an FXR responsive promoter. Thus, quantifying changes in luciferase expression in the treated reporter cells provides a sensitive surrogate measure of the changes in FXR activity. […] The assay is according to the manufacturer's instructions. In brief, the assay was performed in white, 96 well plates using final volume of 100 ul containing cells with different doses of compounds. Retrieve Reporter Cells from −80° C. storage. Perform a rapid thaw of the frozen cells by transferring a 10 ml volume of 37° C. cell recovery medium into the tube of frozen cells. Recap the tube of Reporter Cells and immediately place it in a 37° C. water bath for 5-10 minutes. Retrieve the tube of Reporter Cell Suspension from the water bath. Sanitize the outside surface of the tube with a 70% alcohol swab, and then transfer it into the cell culture hood. Dispense 90 μl of cell suspension into each well of the 96-well Assay Plate. Transfer the plate into 37° C. incubator, allowing the cells adherent to the bottom of the well. Dilute compounds in Dilution Plate (DP), and administrate to cells at Assay Plate (AP). DMSO content of the samples was kept at 0.2%. Cells were incubated for additional 22 hours before luciferase activities were measured. Thirty minutes before intending to quantify FXR activity, remove Detection Substrate and Detection Buffer from the refrigerator and place them in a low-light area so that they may equilibrate to room temperature. Remove the plate's lid and discard all media contents by ejecting it into an appropriate waste container. Gently tap the inverted plate onto a clean absorbent paper towel to remove residual droplets. Cells will remain tightly adhered to well bottoms. Add 100 μl of luciferase detection reagent to each well of the assay plate. Allow the assay plate to rest at room temperature for at least 5 minutes following the addition of LDR. Set the instrument (Envision) to perform a single 5 second “plate shake” prior to reading the first assay well. Read time may be 0.5 second (500 mSec) per well.

[1] = efficacy normalized to CDCA set as 100%

| SMILES | EC50 [µM] | Efficacy (%) | Efficacy (%) [1] [%] |
| --- | --- | --- | --- |
| CCOP(=O)(CC[C@@H](C)[C@H]1CC[C@H]2[C@@H]3[C@H](O)[C@H](CC)[C@@H]4C[C@H](O)CC[C@]4(C)[C@H]3CC[C@]12C)c1ccccc1 (stereo partly drawn) [Example 29] | 1 to 10 | 49. |  |
| CCOP(=O)(CCC[C@@H](C)[C@H]1CC[C@H]2[C@@H]3[C@H](O)[C@H](CC)[C@@H]4C[C@H](O)CC[C@]4(C)[C@H]3CC[C@]12C)c1ccccc1 (stereo partly drawn) [Example 28] | 0.1 to 1 | 265 |  |
| CC[C@H]1[C@@H](O)[C@@H]2[C@H](CC[C@]3(C)[C@@H]([C@H](C)CCC(=O)N(O)Cc4ccccc4)CC[C@@H]23)[C@@]2(C)CC[C@@H](O)C[C@@H]12 [Example 4] | 1 to 10 |  | 270 |
| CC[C@H]1[C@@H](O)[C@@H]2[C@H](CC[C@]3(C)[C@@H]([C@H](C)CCCOP(=O)(Oc4ccccc4)c4ccccc4)CC[C@@H]23)[C@@]2(C)CC[C@@H](O)C[C@@H]12 (stereo partly drawn) [Example 26] | 1 to 10 | 129 |  |
| CC[C@H]1[C@@H](O)[C@@H]2[C@H](CC[C@]3(C)[C@@H]([C@H](C)CC=CCS(N)(=O)=O)CC[C@@H]23)[C@@]2(C)CC[C@@H](O)C[C@@H]12 [Example 14] | 0.1 to 1 |  | 167 |
| CC[C@H]1[C@@H](O)[C@@H]2[C@H](CC[C@]3(C)[C@@H]([C@H](C)CCS(=O)(=O)N(Cc4ccc(OC)cc4)Cc4ccc(OC)cc4)CC[C@@H]23)[C@@]2(C)CC[C@@H](O)C[C@@H]12 [Example 12] | 1 to 10 |  | 1 |
| CC[C@H]1[C@@H](O)[C@@H]2[C@H](CC[C@]3(C)[C@@H]([C@H](C)CCS(=O)(=O)NC(=O)c4ccccc4)CC[C@@H]23)[C@@]2(C)CC[C@@H](O)C[C@@H]12 [Example 22] | 1 to 10 |  | 249 |
| CCOP(=O)(CCC[C@@H](C)[C@H]1CC[C@H]2[C@@H]3[C@H](O)[C@H](CC)[C@@H]4C[C@H](O)CC[C@]4(C)[C@H]3CC[C@]12C)OCC [Example 27] | 1 to 10 | 246 |  |
| CC(C)N(O)C(=O)CC[C@@H](C)[C@H]1CC[C@H]2[C@@H]3[C@H](O)C[C@@H]4C[C@H](O)CC[C@]4(C)[C@H]3CC[C@]12C [Example 2] | > 10 |  | 13 |
| CC[C@H]1[C@@H](O)[C@@H]2[C@H](CC[C@]3(C)[C@@H]([C@H](C)CCCS(=O)(=O)[O-])CC[C@@H]23)[C@@]2(C)CC[C@@H](O)C[C@@H]12.[Na+] [Example 10] | 1 to 10 |  | 4 |
| CC[C@H]1[C@@H](O)[C@@H]2[C@H](CC[C@]3(C)[C@@H]([C@H](C)/C=C/S(N)(=O)=O)CC[C@@H]23)[C@@]2(C)CC[C@@H](O)C[C@@H]12 [Example 19] | 1 to 10 |  | 3 |
| CC[C@H]1[C@@H](O)[C@@H]2[C@H](CC[C@]3(C)[C@@H]([C@H](C)CCS(=O)(=O)NC(C)=O)CC[C@@H]23)[C@@]2(C)CC[C@@H](O)C[C@@H]12 [Example 21] | 1 to 10 |  | 74 |
| C[C@H](CCC(=O)N(O)C1CCCCC1)[C@H]1CC[C@H]2[C@@H]3[C@H](O)C[C@@H]4C[C@H](O)CC[C@]4(C)[C@H]3CC[C@]12C [Example 3] | > 10 |  | 2 |
| CC[C@H]1[C@@H](O)[C@@H]2[C@H](CC[C@]3(C)[C@@H]([C@H](C)CCCS(N)(=O)=O)CC[C@@H]23)[C@@]2(C)CC[C@@H](O)C[C@@H]12 [Example 23] | 1 to 10 |  | 202 |
| CC[C@H]1[C@@H](O)[C@@H]2[C@H](CC[C@]3(C)[C@@H]([C@H](C)CCCc4cc(F)c(O)c(F)c4)CC[C@@H]23)[C@@]2(C)CC[C@@H](O)C[C@@H]12 [Example 9] | 1 to 10 |  | 271 |
| CC[C@H]1[C@@H](O)[C@@H]2[C@H](CC[C@]3(C)[C@@H]([C@H](C)CCCCS(N)(=O)=O)CC[C@@H]23)[C@@]2(C)CC[C@@H](O)C[C@@H]12 [Example 15] | 0.1 to 1 |  | 195 |
| CC[C@H]1[C@@H](O)[C@@H]2[C@H](CC[C@]3(C)[C@@H]([C@H](C)CCS(=O)(=O)NCc4ccc(OC)cc4)CC[C@@H]23)[C@@]2(C)CC[C@@H](O)C[C@@H]12 [Example 20] | > 10 |  | 60 |
| CC[C@H]1[C@@H](O)[C@@H]2[C@H](CC[C@]3(C)[C@@H]([C@H](C)/C=C/S(=O)(=O)NCc4ccc(OC)cc4)CC[C@@H]23)[C@@]2(C)CC[C@@H](O)C[C@@H]12 [Example 18] | 1 to 10 |  | 16 |
| CC[C@H]1[C@@H](O)[C@@H]2[C@H](CC[C@]3(C)[C@@H]([C@H](C)CCS(=O)(=O)[O-])CC[C@@H]23)[C@@]2(C)CC[C@@H](O)C[C@@H]12.[Na+] [Example 11] |  | 1 |  |
| CC[C@H]1[C@@H](O)[C@@H]2[C@H](CC[C@]3(C)[C@@H]([C@H](C)CCS(N)(=O)=O)CC[C@@H]23)[C@@]2(C)CC[C@@H](O)C[C@@H]12 [Example 13] | 1 to 10 |  | 118 |
| CC[C@H]1[C@@H](O)[C@@H]2[C@H](CC[C@]3(C)[C@@H]([C@H](C)CCCCS(=O)(=O)N(C)Cc4ccccc4)CC[C@@H]23)[C@@]2(C)CC[C@@H](O)C[C@@H]12 [Example 16] | 1 to 10 |  | 97 |
| CC[C@H]1[C@@H](O)[C@@H]2[C@H](CC[C@]3(C)[C@@H]([C@H](C)CC=CS(N)(=O)=O)CC[C@@H]23)[C@@]2(C)CC[C@@H](O)C[C@@H]12 [Example 17] | 0.1 to 1 |  | 147 |
| CC[C@H]1[C@@H](O)[C@@H]2[C@H](CC[C@]3(C)[C@@H]([C@H](C)CCOP(=O)(O)c4ccccc4)CC[C@@H]23)[C@@]2(C)CC[C@@H](O)C[C@@H]12 [Example 24] | 1 to 10 |  | 75 |
